US10131652B2, “Pyrimidinyloxy benzene derivatives as herbicides” (E. I. DU PONT DE NEMOURS AND COMPANY, priority 2014, dated 2018)

Assays:
Experiment in all cases: Test D pre-/postemergence plant response
Type in all cases: in vivo
[1] = tested on: morningglory (Ipomoea coccinea); settings: Postemergence; for Morningglory plant response rating: scale 0 to 100 (0 no effect, 100 complete control); for Plant response rating, Morningglory: scale 0 to 100, 0 no effect, 100 complete control
Description: (§1) Seeds of plant species selected from blackgrass (Alopecurus myosuroides), Italian ryegrass (Lolium multiflorum), winter wheat (Triticum aestivum), galium (catchweed bedstraw, Galium aparine), corn (Zea mays), large (Lg) crabgrass (Digitaria sanguinalis), giant foxtail (Setaria faberii), johnsongrass (Sorghum halepense), lambsquarters (Chenopodium album), morningglory (Ipomoea coccinea), yellow nutsedge (Cyperus esculentus), pigweed (Amaranthus retroflexus), ragweed (common ragweed, Ambrosia elatior), soybean (Glycine max), bamyardgrass (Echinochloa crus-galli), oilseed rape (Brassica napus), waterhemp (common waterhemp, Amaranthus rudis), and velvetleaf (Abutilon theophrasti) were planted into a blend of loam soil and sand and treated preemergence with test chemicals formulated in a non-phytotoxic solvent mixture which included a surfactant. At the same time, plants selected from these crop and weed species and also kochia (Kochia scoparia), wild oat (Avena fatua), and chickweed (common chickweed, Stellaria media) were planted in pots containing Redi-Earth® planting medium (Scotts Company, 14111 Scottslawn Road, Marysville, Ohio 43041) comprising spaghnum peat moss, vermiculite, wetting agent and starter nutrients and treated with postemergence applications of test chemicals formulated in the same manner. Plants ranged in height from 2 to 18 cm (1- to 4-leaf stage) for postemergence treatments. Treated plants and controls were maintained in a greenhouse for 13 to 15 days, after which time all species were compared to controls and visually evaluated. Plant response ratings, summarized in Table D, are based on a scale of 0 to 100 where 0 is no effect and 100 is complete control. A dash (-) response means no test result.

[2] = tested on: winter wheat (Triticum aestivum); settings: Postemergence; for Wheat plant response rating: scale 0 to 100 (0 no effect, 100 complete control); for Plant response rating, Wheat: scale 0 to 100, 0 no effect, 100 complete control
Description: as §1

[3] = tested on: velvetleaf (Abutilon theophrasti); settings: Postemergence; for Velvetleaf plant response rating: scale 0 to 100 (0 no effect, 100 complete control); for Plant response rating, Velvetleaf: scale 0 to 100, 0 no effect, 100 complete control
Description: as §1

[4] = tested on: johnsongrass (Sorghum halepense); settings: Postemergence; for Johnsongrass plant response rating: scale 0 to 100 (0 no effect, 100 complete control); for Plant response rating, Johnsongrass: scale 0 to 100, 0 no effect, 100 complete control
Description: as §1

[5] = tested on: blackgrass (Alopecurus myosuroides); settings: Postemergence; for Blackgrass plant response rating: scale 0 to 100 (0 no effect, 100 complete control); for Plant response rating, Blackgrass: scale 0 to 100, 0 no effect, 100 complete control
Description: as §1

[6] = tested on: Italian ryegrass (Lolium multiflorum); settings: Postemergence; for Ryegrass, Italian plant response rating: scale 0 to 100 (0 no effect, 100 complete control); for Plant response rating, Ryegrass, Italian: scale 0 to 100, 0 no effect, 100 complete control
Description: as §1

[7] = tested on: large (Lg) crabgrass (Digitaria sanguinalis); settings: Postemergence; for Crabgrass, Large plant response rating: scale 0 to 100 (0 no effect, 100 complete control); for Plant response rating, Crabgrass, Large: scale 0 to 100, 0 no effect, 100 complete control
Description: as §1

[8] = tested on: giant foxtail (Setaria faberii); settings: Postemergence; for Foxtail, Giant plant response rating: scale 0 to 100 (0 no effect, 100 complete control); for Plant response rating, Foxtail, Giant: scale 0 to 100, 0 no effect, 100 complete control
Description: as §1

[9] = tested on: galium (catchweed bedstraw, Galium aparine); settings: Postemergence; for Galium plant response rating: scale 0 to 100 (0 no effect, 100 complete control); for Plant response rating, Galium: scale 0 to 100, 0 no effect, 100 complete control
Description: as §1

[10] = tested on: corn (Zea mays); settings: Postemergence; for Corn plant response rating: scale 0 to 100 (0 no effect, 100 complete control); for Plant response rating, Corn: scale 0 to 100, 0 no effect, 100 complete control
Description: as §1

[11] = tested on: pigweed (Amaranthus retroflexus); settings: Postemergence; for Pigweed plant response rating: scale 0 to 100 (0 no effect, 100 complete control); for Plant response rating, Pigweed: scale 0 to 100, 0 no effect, 100 complete control
Description: as §1

[12] = tested on: soybean (Glycine max); settings: Postemergence; for Soybean plant response rating: scale 0 to 100 (0 no effect, 100 complete control); for Plant response rating, Soybean: scale 0 to 100, 0 no effect, 100 complete control
Description: as §1

[13] = tested on: lambsquarters (Chenopodium album); settings: Postemergence; for Lambsquarters plant response rating: scale 0 to 100 (0 no effect, 100 complete control); for Plant response rating, Lambsquarters: scale 0 to 100, 0 no effect, 100 complete control
Description: as §1

[14] = tested on: waterhemp (common waterhemp, Amaranthus rudis); settings: Postemergence; for Waterhemp plant response rating: scale 0 to 100 (0 no effect, 100 complete control); for Plant response rating, Waterhemp: scale 0 to 100, 0 no effect, 100 complete control
Description: as §1

[15] = tested on: barnyardgrass (Echinochloa crus-galli); settings: Postemergence; for Barnyardgrass plant response rating: scale 0 to 100 (0 no effect, 100 complete control); for Plant response rating, Barnyardgrass: scale 0 to 100, 0 no effect, 100 complete control
Description: as §1

[16] = tested on: oilseed rape (Brassica napus); settings: Postemergence; for Oilseed Rape plant response rating: scale 0 to 100 (0 no effect, 100 complete control); for Plant response rating, Oilseed Rape: scale 0 to 100, 0 no effect, 100 complete control
Description: as §1

[17] = tested on: ragweed (common ragweed, Ambrosia elatior); settings: Postemergence; for Ragweed plant response rating: scale 0 to 100 (0 no effect, 100 complete control); for Plant response rating, Ragweed: scale 0 to 100, 0 no effect, 100 complete control
Description: as §1

Question: Which “Morningglory plant response rating” value ([1]; 16 g ai/ha) does the source give for `Cn1nnc(-c2ccccc2Oc2ncc(Br)cn2)n1` [Compound 50] here?
Answer: 0

Question: And the “Morningglory plant response rating” value ([1]; 31 g ai/ha)?
Answer: 0

Question: And the “Plant response rating, Morningglory” value ([1]; 62 g ai/ha)?
Answer: 10

Question: And the “Plant response rating, Morningglory” value ([1]; 125 g ai/ha)?
Answer: 20

Question: What about the “Wheat plant response rating” value ([2]; 16 g ai/ha) of the same molecule?
Answer: 0

Question: What about the “Wheat plant response rating” value ([2]; 31 g ai/ha) of the same molecule?
Answer: 0

Question: And the “Plant response rating, Wheat” value ([2]; 62 g ai/ha)?
Answer: 5

Question: What about the “Plant response rating, Wheat” value ([2]; 125 g ai/ha) of the same molecule?
Answer: 5

Question: And the “Velvetleaf plant response rating” value ([3]; 16 g ai/ha)?
Answer: 0

Question: What about the “Velvetleaf plant response rating” value ([3]; 31 g ai/ha) of the same molecule?
Answer: 0

Question: What about the “Plant response rating, Velvetleaf” value ([3]; 62 g ai/ha) of the same molecule?
Answer: 0

Question: And the “Plant response rating, Velvetleaf” value ([3]; 125 g ai/ha)?
Answer: 40

Question: What about the “Johnsongrass plant response rating” value ([4]; 16 g ai/ha) of the same molecule?
Answer: 0

Question: And the “Johnsongrass plant response rating” value ([4]; 31 g ai/ha)?
Answer: 0

Question: What about the “Plant response rating, Johnsongrass” value ([4]; 62 g ai/ha) of the same molecule?
Answer: 0

Question: What about the “Plant response rating, Johnsongrass” value ([4]; 125 g ai/ha) of the same molecule?
Answer: 0

Question: What about the “Blackgrass plant response rating” value ([5]; 16 g ai/ha) of the same molecule?
Answer: 0

Question: And the “Blackgrass plant response rating” value ([5]; 31 g ai/ha)?
Answer: 0

Question: And the “Plant response rating, Blackgrass” value ([5]; 62 g ai/ha)?
Answer: 0

Question: And the “Plant response rating, Blackgrass” value ([5]; 125 g ai/ha)?
Answer: 0

Question: What about the “Ryegrass, Italian plant response rating” value ([6]; 16 g ai/ha) of the same molecule?
Answer: 0

Question: And the “Ryegrass, Italian plant response rating” value ([6]; 31 g ai/ha)?
Answer: 0

Question: What about the “Plant response rating, Ryegrass, Italian” value ([6]; 62 g ai/ha) of the same molecule?
Answer: 0

Question: What about the “Plant response rating, Ryegrass, Italian” value ([6]; 125 g ai/ha) of the same molecule?
Answer: 0

Question: What about the “Crabgrass, Large plant response rating” value ([7]; 16 g ai/ha) of the same molecule?
Answer: 0

Question: And the “Crabgrass, Large plant response rating” value ([7]; 31 g ai/ha)?
Answer: 0

Question: What about the “Plant response rating, Crabgrass, Large” value ([7]; 62 g ai/ha) of the same molecule?
Answer: 0

Question: And the “Plant response rating, Crabgrass, Large” value ([7]; 125 g ai/ha)?
Answer: 5

Question: What about the “Foxtail, Giant plant response rating” value ([8]; 16 g ai/ha) of the same molecule?
Answer: 0

Question: And the “Foxtail, Giant plant response rating” value ([8]; 31 g ai/ha)?
Answer: 0

Question: What about the “Plant response rating, Foxtail, Giant” value ([8]; 62 g ai/ha) of the same molecule?
Answer: 5

Question: And the “Plant response rating, Foxtail, Giant” value ([8]; 125 g ai/ha)?
Answer: 35

Question: And the “Galium plant response rating” value ([9]; 16 g ai/ha)?
Answer: 30

Question: What about the “Galium plant response rating” value ([9]; 31 g ai/ha) of the same molecule?
Answer: 15

Question: And the “Plant response rating, Galium” value ([9]; 62 g ai/ha)?
Answer: 5

Question: And the “Plant response rating, Galium” value ([9]; 125 g ai/ha)?
Answer: 60

Question: What about the “Corn plant response rating” value ([10]; 16 g ai/ha) of the same molecule?
Answer: 0

Question: And the “Corn plant response rating” value ([10]; 31 g ai/ha)?
Answer: 0

Question: And the “Plant response rating, Corn” value ([10]; 62 g ai/ha)?
Answer: 0

Question: And the “Plant response rating, Corn” value ([10]; 125 g ai/ha)?
Answer: 5

Question: What about the “Pigweed plant response rating” value ([11]; 16 g ai/ha) of the same molecule?
Answer: 0

Question: What about the “Pigweed plant response rating” value ([11]; 31 g ai/ha) of the same molecule?
Answer: 5

Question: And the “Plant response rating, Pigweed” value ([11]; 62 g ai/ha)?
Answer: 5

Question: What about the “Plant response rating, Pigweed” value ([11]; 125 g ai/ha) of the same molecule?
Answer: 30

Question: What about the “Soybean plant response rating” value ([12]; 16 g ai/ha) of the same molecule?
Answer: 5

Question: What about the “Soybean plant response rating” value ([12]; 31 g ai/ha) of the same molecule?
Answer: 5

Question: What about the “Plant response rating, Soybean” value ([12]; 62 g ai/ha) of the same molecule?
Answer: 20

Question: And the “Plant response rating, Soybean” value ([12]; 125 g ai/ha)?
Answer: 40

Question: And the “Lambsquarters plant response rating” value ([13]; 16 g ai/ha)?
Answer: 0

Question: And the “Lambsquarters plant response rating” value ([13]; 31 g ai/ha)?
Answer: 5

Question: What about the “Plant response rating, Lambsquarters” value ([13]; 62 g ai/ha) of the same molecule?
Answer: 50

Question: What about the “Plant response rating, Lambsquarters” value ([13]; 125 g ai/ha) of the same molecule?
Answer: 5

Question: What about the “Waterhemp plant response rating” value ([14]; 16 g ai/ha) of the same molecule?
Answer: 0

Question: What about the “Waterhemp plant response rating” value ([14]; 31 g ai/ha) of the same molecule?
Answer: 0

Question: And the “Plant response rating, Waterhemp” value ([14]; 62 g ai/ha)?
Answer: 0

Question: What about the “Plant response rating, Waterhemp” value ([14]; 125 g ai/ha) of the same molecule?
Answer: 40

Question: And the “Barnyardgrass plant response rating” value ([15]; 16 g ai/ha)?
Answer: 0

Question: What about the “Barnyardgrass plant response rating” value ([15]; 31 g ai/ha) of the same molecule?
Answer: 0

Question: And the “Plant response rating, Barnyardgrass” value ([15]; 62 g ai/ha)?
Answer: 0

Question: What about the “Plant response rating, Barnyardgrass” value ([15]; 125 g ai/ha) of the same molecule?
Answer: 0

Question: What about the “Oilseed Rape plant response rating” value ([16]; 16 g ai/ha) of the same molecule?
Answer: 5

Question: And the “Oilseed Rape plant response rating” value ([16]; 31 g ai/ha)?
Answer: 5

Question: And the “Plant response rating, Oilseed Rape” value ([16]; 62 g ai/ha)?
Answer: 10

Question: What about the “Plant response rating, Oilseed Rape” value ([16]; 125 g ai/ha) of the same molecule?
Answer: 30

Question: And the “Ragweed plant response rating” value ([17]; 16 g ai/ha)?
Answer: 5

Question: And the “Ragweed plant response rating” value ([17]; 31 g ai/ha)?
Answer: 5

Question: What about the “Plant response rating, Ragweed” value ([17]; 62 g ai/ha) of the same molecule?
Answer: 5

Question: What about the “Plant response rating, Ragweed” value ([17]; 125 g ai/ha) of the same molecule?
Answer: 15
